Patent publication US9149038B2, “4-amino-6-(heterocyclic)picolinates and 6-amino-2-(heterocyclic)pyrimidine-4-carboxylates and their use as herbicides” (Dow AgroSciences LLC, priority 2013, dated 2015)
Where two headings read alike, the source gives them in different places.

Columns and labels:
[1] = test system: Key Broadleaf Weed and Crop Species; test: Post-Emergent Test II: postemergent herbicidal activity, visual rating after 14 d (Table 7); assay type: in vivo; conditions: post-emergence, 336 h; for pest or weed control at 35 g/ha: 35 g ai/ha; for pest or weed control at 70 g/ha: 70 g ai/ha; for pest or weed control at 140 g/ha: 140 g ai/ha
Outline: (§1)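 Visual 0-100% injury score (0 no injury, 100 complete kill) at 14 d post-spray, relative to untreated plants. Seedlings at 1st-2nd true leaf stage; track sprayer at 187 L/ha, highest rate plus ½×, ¼×, ⅛×, 1/16× serial dilutions. Subirrigated after treatment.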

[2] = test system: Key Grass and Sedge Weeds as well as Grass Crops; test: Post-Emergent Test II: postemergent herbicidal activity, visual rating after 14 d (Table 8); assay type: in vivo; conditions: post-emergence, 336 h; for pest or weed control at 35 g/ha: 35 g ai/ha; for pest or weed control at 70 g/ha: 70 g ai/ha; for pest or weed control at 140 g/ha: 140 g ai/ha
Outline: as §1

[3] = lambsquarters (Chenopodium album), read-out: Visual Growth Reduction (%) 14 Days After Application CHEAL
[4] = oilseed rape, canola (Brassica napus), read-out: Visual Growth Reduction (%) 14 Days After Application BRSNN
[5] = redroot pigweed (Amaranthus retroflexus), read-out: Visual Growth Reduction (%) 14 Days After Application AMARE
[6] = sunflower (Helianthus annuus), read-out: Visual Growth Reduction (%) 14 Days After Application HELAN
[7] = velvetleaf (Abutilon theophrasti), read-out: Visual Growth Reduction (%) 14 Days After Application ABUTH
[8] = wild poinsettia (Euphorbia heterophylla), read-out: Visual Growth Reduction (%) 14 Days After Application EPHHL
[9] = barnyardgrass (Echinochloa crus-galli), read-out: Visual Growth Reduction (%) 14 Days After Application ECHCG
[10] = giant foxtail (Setaria faberi), read-out: Visual Growth Reduction (%) 14 Days After Application SETFA
[11] = maize, corn (Zea mays), read-out: Visual Growth Reduction (%) 14 Days After Application ZEAMX
[12] = rice (Oryza sativa), read-out: Visual Growth Reduction (%) 14 Days After Application ORYSA
[13] = wheat, spring (Triticum aestivum), read-out: Visual Growth Reduction (%) 14 Days After Application TRZAS
[14] = yellow nutsedge (Cyperus esculentus), read-out: Visual Growth Reduction (%) 14 Days After Application CYPES

Structure (SMILES)	pest or weed control at 35 g/ha [1, 3] [%]	pest or weed control at 70 g/ha [1, 3] [%]	pest or weed control at 140 g/ha [1, 3] [%]	pest or weed control at 35 g/ha [1, 4] [%]	pest or weed control at 70 g/ha [1, 4] [%]	pest or weed control at 140 g/ha [1, 4] [%]	pest or weed control at 35 g/ha [1, 5] [%]	pest or weed control at 70 g/ha [1, 5] [%]	pest or weed control at 140 g/ha [1, 5] [%]	pest or weed control at 35 g/ha [1, 6] [%]	pest or weed control at 70 g/ha [1, 6] [%]	pest or weed control at 140 g/ha [1, 6] [%]	pest or weed control at 35 g/ha [1, 7] [%]	pest or weed control at 70 g/ha [1, 7] [%]	pest or weed control at 140 g/ha [1, 7] [%]	pest or weed control at 35 g/ha [1, 8] [%]	pest or weed control at 70 g/ha [1, 8] [%]	pest or weed control at 140 g/ha [1, 8] [%]	pest or weed control at 35 g/ha [2, 9] [%]	pest or weed control at 70 g/ha [2, 9] [%]	further results
Nc1nc(-c2ccc3c(c2F)OC(F)(F)O3)nc(C(=O)O)c1Cl [Compound 59]	75 to 84	85 to 94	85 to 94	60 to 74	85 to 94	85 to 94	45 to 59	85 to 94	95 to 100	60 to 74	75 to 84	75 to 84	0 to 29	0 to 29	60 to 74	95 to 100	95 to 100	95 to 100	75 to 84	75 to 84	pest or weed control at 35 g/ha [2, 10]: 45 to 59%; pest or weed control at 70 g/ha [2, 10]: 60 to 74%; pest or weed control at 140 g/ha [2, 10]: 60 to 74%; pest or weed control at 35 g/ha [2, 11]: 60 to 74%; pest or weed control at 70 g/ha [2, 11]: 60 to 74%; pest or weed control at 140 g/ha [2, 11]: 60 to 74%; pest or weed control at 35 g/ha [2, 12]: 0 to 29%; pest or weed control at 70 g/ha [2, 12]: 0 to 29%; pest or weed control at 140 g/ha [2, 12]: 0 to 29%; pest or weed control at 35 g/ha [2, 13]: 0 to 29%; pest or weed control at 70 g/ha [2, 13]: 0 to 29%; pest or weed control at 140 g/ha [2, 13]: 0 to 29%; pest or weed control at 35 g/ha [2, 14]: 0 to 29%; pest or weed control at 70 g/ha [2, 14]: 0 to 29%; pest or weed control at 140 g/ha [2, 14]: 85 to 94%
Nc1c(F)c(-c2cc(F)c3c(c2)OC(F)(F)O3)nc(C(=O)O)c1Cl [Compound 18]	0 to 29	0 to 29	0 to 29	0 to 29	0 to 29	0 to 29	0 to 29	0 to 29	0 to 29	0 to 29	0 to 29	45 to 59	0 to 29	0 to 29	0 to 29	0 to 29	0 to 29	0 to 29	45 to 59	60 to 74	pest or weed control at 140 g/ha [2, 9]: 60 to 74%; pest or weed control at 35 g/ha [2, 10]: 45 to 59%; pest or weed control at 70 g/ha [2, 10]: 45 to 59%; pest or weed control at 140 g/ha [2, 10]: 60 to 74%; pest or weed control at 35 g/ha [2, 11]: 0 to 29%; pest or weed control at 70 g/ha [2, 11]: 30 to 44%; pest or weed control at 140 g/ha [2, 11]: 60 to 74%; pest or weed control at 35 g/ha [2, 12]: 0 to 29%; pest or weed control at 70 g/ha [2, 12]: 0 to 29%; pest or weed control at 140 g/ha [2, 12]: 0 to 29%; pest or weed control at 35 g/ha [2, 13]: 0 to 29%; pest or weed control at 70 g/ha [2, 13]: 45 to 59%; pest or weed control at 140 g/ha [2, 13]: 45 to 59%; pest or weed control at 35 g/ha [2, 14]: 0 to 29%; pest or weed control at 70 g/ha [2, 14]: 0 to 29%; pest or weed control at 140 g/ha [2, 14]: 0 to 29%
COc1cc(-c2nc(C(=O)O)c(Cl)c(N)c2F)cc2c1OCO2 [Compound 15]	0 to 29	45 to 59	75 to 84	0 to 29	0 to 29	0 to 29	0 to 29	0 to 29	45 to 59	0 to 29	0 to 29	0 to 29	0 to 29	0 to 29	0 to 29	0 to 29	0 to 29	0 to 29	0 to 29	0 to 29	pest or weed control at 140 g/ha [2, 9]: 0 to 29%; pest or weed control at 35 g/ha [2, 10]: 0 to 29%; pest or weed control at 70 g/ha [2, 10]: 0 to 29%; pest or weed control at 140 g/ha [2, 10]: 0 to 29%; pest or weed control at 35 g/ha [2, 11]: 0 to 29%; pest or weed control at 70 g/ha [2, 11]: 0 to 29%; pest or weed control at 140 g/ha [2, 11]: 0 to 29%; pest or weed control at 35 g/ha [2, 12]: 0 to 29%; pest or weed control at 70 g/ha [2, 12]: 0 to 29%; pest or weed control at 140 g/ha [2, 12]: 0 to 29%; pest or weed control at 35 g/ha [2, 13]: 0 to 29%; pest or weed control at 70 g/ha [2, 13]: 0 to 29%; pest or weed control at 140 g/ha [2, 13]: 0 to 29%; pest or weed control at 35 g/ha [2, 14]: 0 to 29%; pest or weed control at 70 g/ha [2, 14]: 0 to 29%; pest or weed control at 140 g/ha [2, 14]: 0 to 29%
